Results on 75 compounds are retold here after US20260373266A1, “PROTEIN DEGRADERS AND USES THEREOF” (KYMERA THERAPEUTICS, INC., priority 2022, published 2026).

SMILES strings stand for the structures. Where only a bound is given, the exact number is not on record here.

In general, Kd refers to the constant that tells how readily two partners part at equilibrium.

T1 sequence (Q9Y4B6 1077-1390): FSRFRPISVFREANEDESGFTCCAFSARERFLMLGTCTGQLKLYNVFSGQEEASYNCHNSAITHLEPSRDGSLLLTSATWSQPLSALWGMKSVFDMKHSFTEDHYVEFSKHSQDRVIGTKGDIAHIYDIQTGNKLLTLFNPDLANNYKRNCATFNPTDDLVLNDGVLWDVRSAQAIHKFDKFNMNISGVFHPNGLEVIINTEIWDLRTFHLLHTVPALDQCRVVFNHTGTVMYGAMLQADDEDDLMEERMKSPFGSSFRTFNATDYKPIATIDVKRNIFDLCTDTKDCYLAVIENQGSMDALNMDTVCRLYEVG

The assay concerns the target T1, DCAF1 WD40 domain (residues 1077-1390) (Homo sapiens, UniProt Q9Y4B6).
T1 construct: DCAF1 WD40 domain (residues 1077-1390)
As to the kind of experiment: DCAF1 binding assay by SPR (Biacore 8K+), DCAF1-3 KD. Particulars: 25 °C, read-out: DCAF1-3 SPR (KD). (Surface plasmon resonance follows binding to a sensor surface in real time, without labels.)
On to `NC(=O)CCc1cc(N2CCC[C@@H]3[C@H]2CCN3c2cc(N3CCCCC3)ccn2)ccc1F` [I-875], for which the Kd lay in the range of 10 to 100 µM.
For `C=CC(=O)N1CC[C@H]1C(=O)N1CCN(c2ccnc(N[C@@H]3CCCN(c4cccc(F)c4)C3)c2)CC1` [I-479], the Kd is more than 200 µM.
The value for `N#Cc1[nH]cc(C(=O)N[C@@H](CC(N)=O)c2cccc(Cl)c2)c1-c1ccccc1F` [I-598] was less than 10 µM.
Consider `C=CC(=O)N1CCCC(c2[nH]ncc2C(=O)N[C@@H](CC(N)=O)c2cccc(Cl)c2)C1` (stereo partly drawn) [I-469], for which the Kd is more than 200 µM.
For `Nc1ccc(N2CCC[C@H]3[C@@H]2CCN3c2cc(N3CC4CC(C4)C3)ccn2)cc1F` [I-734], the Kd is 10 to 100 µM.
With `c1ccc2ncc(N3CCC[C@@H](Nc4cc(N5CCOCC5)ncn4)C3)cc2c1` [I-399], the Kd is more than 200 µM.
The value for `OCCCc1ccc(N2CCC[C@@H](Nc3cc(N4CCOCC4)ccn3)C2)cc1` [I-873] was more than 200 µM; that for `OCCc1cccc(N2CCC[C@@H](Nc3cc(N4CCOCC4)ccn3)C2)c1` [I-861] was 10 to 100 µM.
For `c1ccc2c(N3CCC[C@@H](Nc4cc(N5CCOCC5)ncn4)C3)cccc2c1` [I-388], the Kd was more than 200 µM.
The value for `c1cncc(-c2csc(N3CCC[C@@H](Nc4cc(N5CCOCC5)ccn4)C3)n2)c1` [I-412] was more than 200 µM; that for `Fc1cccc([C@@H]2CCC[C@@H](Nc3nccc(N4CCOCC4)n3)C2)c1` [I-185] was more than 200 µM.
As to `C=CC(=O)NC1CCC(c2[nH]ncc2C(=O)N[C@H](CC(N)=O)c2cccc(Cl)c2)CC1` (stereo partly drawn) [I-537], the equilibrium dissociation constant (Kd) lay within 10 to 100 µM.
For `Fc1cccc(N2CCC3CCCc4ncc(N5CCOCC5)cc4N[C@H]3C2)c1` (stereo partly drawn) [I-227], the Kd is more than 200 µM.
As for `c1cc(N2CCC[C@@H](Nc3nccc(N4CCOCC4)n3)C2)c2ccncc2c1` [I-55], the figure is 100 to 200 µM; as for `Fc1cccc(N2CCCC(N3CCc4c(N5CC6CC(C6)C5)ccnc43)C2)c1` (stereo not drawn) [I-790], less than 10 µM.
The value for `Fc1cccc(N2C[C@H](Nc3cc(N4CCOCC4)ncn3)C3CCC[C@H]2C3)c1` (stereo in doubt) [I-384] was more than 200 µM.
As for `Cc1cccc(N2CCC[C@@H](Nc3cc(N4CCOCC4)ccn3)C2)c1` [I-510], the figure is 100 to 200 µM; as for `FC(F)(F)Oc1ccc(N2CCC[C@@H](Nc3cc(N4CCOCC4)ccn3)C2)nc1` [I-426], 10 to 100 µM; as for `Cc1c(F)ccc(F)c1-c1[nH]ncc1C(=O)N[C@H](c1cccc(Cl)c1)[C@@H]1CCOC1` [I-967], 10 to 100 µM.
With `C=CC(=O)N1CC(N(C)c2ccnc(N[C@@H]3CCCN(c4cccc(F)c4)C3)c2)C1` [I-457], the Kd lay in the range of 10 to 100 µM.
Consider `Cc1cccc(F)c1-c1c(C(=O)N[C@@H](CC(N)=O)c2cccc(Cl)c2)c[nH]c1C(=O)C1CCCCC1` [I-606], for which the Kd is less than 10 µM.
With `O=C1NCCc2c1cccc2N1CCC[C@@H](Nc2cc(N3CCOCC3)ccn2)C1` [I-778], the Kd was more than 200 µM.
Turning to `O=C(Nc1ccc(F)c(Cl)c1)C1CCN(c2ccnc(-c3ccccc3)n2)CC1` [I-21], the Kd was more than 200 µM.
The value for `NS(=O)(=O)c1nc(N2CCC[C@@H](Nc3cc(N4CCOCC4)ccn3)C2)cs1` [I-413] was more than 200 µM.
The value for `c1cc(N2CCCCC2)cc(N[C@@H]2CCC[C@H](C3CCCCC3)C2)n1` [I-751] was more than 200 µM.
As for `NC(=O)[C@@H]1CCN(C(=O)c2c[nH]nc2-c2ccccc2F)[C@@H]1c1cccc(Cl)c1` [I-204], the figure is more than 200 µM; as for `O=C(N[C@H](c1cccc(Cl)c1)[C@@H]1CCNC1=O)c1c[nH]nc1-c1ccccc1F` [I-193], more than 200 µM; as for `Fc1cccc(N2CCC[C@@H](Nc3cc(N4CC5CC5C4)ccn3)C2)c1` (stereo partly drawn) [I-574], 10 to 100 µM.
With `Fc1cccc(N2CCC[C@@H](Nc3cccc(N4CCOCC4)n3)C2)c1` [I-17], the Kd was in the range of 100 to 200 µM.
The value for `CCC(=O)N1C[C@H](c2ccc(Br)cc2)[C@@H]1C(=O)Nc1cccc2cccnc12` [I-518] was more than 200 µM; that for `Fc1cccc(N2CCC[C@H](Cc3cc(N4CCOCC4)ccn3)C2)c1` [I-98] was more than 200 µM; that for `C=CC(=O)N1CC[C@H](N(C)c2ccnc(N[C@@H]3CCCN(c4cccc(F)c4)C3)c2)C1` [I-477] was more than 200 µM.
As for `NC(=O)C[C@H](NC(=O)c1c[nH]nc1-c1ccccc1Cl)c1cccc(Cl)c1` [I-210], the Kd is more than 200 µM.
`NCCc1cccc(N2CCC[C@@H](Nc3cc(N4CCOCC4)ccn3)C2)c1` [I-865]: the Kd is more than 200 µM.
For the compound `Fc1cccc(N2CCCC(Nc3nccc(N4CCNCC4)n3)C2)c1` (stereo not drawn) [I-23], the Kd is more than 200 µM.
`COC(=O)c1cc(N2CCC[C@@H](Nc3cc(N4CCOCC4)ccn3)C2)cc2c1OCO2` [I-779]: the Kd was more than 200 µM.
On to `O[C@@]1(c2ccccc2)CCC[C@@H](Nc2cc(N3CCCCC3)ccn2)C1` [I-929], for which the Kd fell in the range of 10 to 100 µM.
Turning to `Cc1sc2c(c1C)C(c1ccc(Cl)cc1)=N[C@@H](CC(=O)NCCCCCCCCCCCCCCCCCC(=O)c1[nH]cc(C(=O)N[C@@H](CC(N)=O)c3cccc(Cl)c3)c1-c1ccccc1F)c1nnc(C)n1-2` [I-893], the Kd was more than 200 µM.
Regarding `NC(=O)C[C@H](NC(=O)c1cn[nH]c1-c1cc(CCC(=O)O)ccc1F)c1cccc(Cl)c1` [I-284], the Kd lay in the range of 10 to 100 µM.
For `Cn1cnc(C[C@H](O)C(=O)N[C@@H](CC(N)=O)c2cccc(Cl)c2)c1` [I-443], the Kd is more than 200 µM.
On to `Fc1cccc(N2CCC[C@@H](Sc3cc(N4CCOCC4)ccn3)C2)c1` [I-113], for which the Kd was more than 200 µM.
As for `NC(=O)CCc1ccc(N2CCC[C@@H](Nc3cc(N4CCOCC4)ccn3)C2)cc1` [I-869], the figure is 10 to 100 µM.
With `Fc1cccc(N2CCC[C@@H](Nc3cc(N4CCOCC4)ncn3)C2)c1` [I-1], the Kd is 100 to 200 µM.
The value for `O=C(CC1CC[C@@H](Nc2cc(N3CCOCC3)ccn2)CN1c1cccc(F)c1)Nc1cccc(Cl)c1` (stereo partly drawn) [I-144] was more than 200 µM; that for `COc1ccc([C@H](CC(N)=O)NC(=O)c2cn[nH]c2-c2ccccc2F)cc1` [I-136] was 100 to 200 µM.
As for `NC(=O)Cc1cccc(N2CCC[C@H]3[C@@H]2CCN3c2cc(N3CCCCC3)ccn2)c1` [I-942], the figure is less than 10 µM; as for `NC(=O)OCc1cccc(N2CCC[C@H]3[C@@H]2CCN3c2cc(N3CCCCC3)ccn2)c1` [I-954], less than 10 µM; as for `OC[C@@H]1C[C@H](Nc2cc(N3CCCCC3)ccn2)CN(c2cccc(F)c2)C1` [I-1011], 10 to 100 µM.
As for `NCCOCCOCCOCCOCCOCCOCC(=O)c1[nH]cc(C(=O)N[C@@H](CC(N)=O)c2cccc(Cl)c2)c1-c1ccccc1F` [I-676], the figure is less than 10 µM; as for `Fc1cccc(N2CCC[C@@H](Nc3cc(N4C[C@H]5CCC4CO5)ncn3)C2)c1` [I-309], more than 200 µM; as for `c1ccc2c(N3CCC[C@@H](Nc4nccc(N5CCOCC5)n4)C3)cncc2c1` [I-54], 10 to 100 µM.
Take `Cc1nn(CC(F)(F)F)cc1N1CCC[C@@H](Nc2cc(N3CCOCC3)ccn2)C1` [I-422]: the Kd is more than 200 µM.
`OCc1cnc2ccc(N3CCC[C@@H](Nc4cc(N5CCCCC5)ccn4)C3)nn12` [I-760]: the Kd is more than 200 µM.
The value for `Oc1ccc(F)cc1N1CCC[C@H]2[C@@H]1CCN2c1cc(N2CCCCC2)ccn1` [I-813] was 10 to 100 µM.
As for `CCCCCCC[C@H]1CCCN(c2ccnc(N3CC[C@H]4[C@@H]3CCCN4c3cccc(F)c3)c2)C1` [I-729], the Kd is 10 to 100 µM.
As for `CC(c1cc(N2CCOCC2)ccn1)(C1CCCN(c2cccc(F)c2)C1)C(F)(F)F` (stereo not drawn) [I-263], the figure is more than 200 µM; as for `O=C1Nc2cnc(N3CCCCC3)cc2NC12CCCN(c1cccc(F)c1)C2` (stereo not drawn) [I-992], 10 to 100 µM.
With `C=CC(=O)Nc1ccc2[nH]nc(C(=O)N[C@@H](CC(N)=O)c3cccc(Cl)c3)c2c1` [I-302], the Kd was more than 200 µM.
As for `C#Cc1cccc(F)c1-c1[nH]ncc1C(=O)N[C@@H](CC(N)=O)c1cccc(Cl)c1` [I-591], the figure is less than 10 µM; as for `CC(=O)NC1CCC2(CC1)CCN(c1ccnc(N3CC[C@@H]4[C@H]3CCCN4c3cccc(F)c3)c1)CC2` [I-1047], less than 10 µM; as for `COCCOCC[C@@H]1CN(c2cc(N3CCCCC3)ccn2)[C@@H]2CCCN(c3cccc(F)c3)[C@H]12` [I-996], 10 to 100 µM.
The value for `OCCN(c1nc(N2CCOCC2)c[nH]1)[C@H]1CCCN(c2cccc(F)c2)C1` [I-372] was more than 200 µM; that for `NC(=O)C[C@H](NC(=O)c1cn[nH]c1-c1ccccc1F)c1ccccc1C(N)=O` [I-352] was more than 200 µM; that for `Cc1sc2c(c1C)C(c1ccc(Cl)cc1)=N[C@@H](CC(=O)NCCCCCCCCCCCCCCC1CCN(c3ccnc(N4CC[C@@H]5[C@H]4CCCN5c4cccc(F)c4)c3)CC1)c1nnc(C)n1-2` [I-902] was more than 200 µM.
As for `Cn1cncc1N1CCC[C@@H](Nc2cc(N3CCOCC3)ccn2)C1` [I-773], the figure is 10 to 100 µM.
Take `Fc1cccc(N2CCC[C@@H](Nc3cc(C4CCOCC4)ccn3)C2)c1` [I-92]: the Kd is more than 200 µM.
The value for `NC(=O)C[C@H](NC(=O)c1c[nH]c(C(=O)c2ccccc2)c1-c1c(F)c(F)cc(F)c1F)c1cccc(Cl)c1` [I-949] was less than 10 µM.
The value for `COc1ccc(C(=O)c2[nH]cc(C(=O)N[C@@H](CC(N)=O)c3cccc(Cl)c3)c2-c2c(F)ccc(F)c2C)cc1` [I-810] was less than 10 µM.
The value for `Fc1cccc(N2CCC[C@@H](Nc3ncc(N4CCOCC4)s3)C2)c1` [I-328] was more than 200 µM.
As for `OCCOCCOCCOCCOCCC1CCCCN1c1ccnc(N2CC[C@@H]3[C@H]2CCCN3c2cccc(F)c2)c1` (stereo partly drawn) [I-971], the Kd was less than 10 µM.
In the case of `NCCc1ccc(N2CCC[C@@H](Nc3cc(N4CCOCC4)ccn3)C2)cc1` [I-871], the equilibrium dissociation constant (Kd) was more than 200 µM.
For the compound `O=C(C[C@H](NC(=O)c1cn[nH]c1-c1ccccc1F)c1cccc(Cl)c1)NCc1ccccc1` [I-84], the Kd was in the range of 10 to 100 µM.
With `C=CC(=O)NCCCCC1CCN(c2ccnc(N[C@@H]3CCCN(c4cccc(F)c4)C3)c2)CC1` [I-756], the Kd is 10 to 100 µM.
As to `Fc1cccc(N2CCC[C@]3(Cc4cnc(N5CCOCC5)cc4N3)C2)c1` [I-213], the Kd was more than 200 µM.
Regarding `Cc1ccc(S(=O)(=O)c2[nH]cc(C(=O)N[C@@H](CC(N)=O)c3cccc(Cl)c3)c2-c2c(F)ccc(F)c2C)cc1` [I-817], the Kd is less than 10 µM.
